Source: US9314498B2, “Bacteriocin derived from Lactobacillus rhamnosus” (priority 2011, dated 2016)

Legend:
[1] = tested on: Candida albicans GDH18 strain; assay: Antimicrobial activity (CFU count, percentage of living cells) against Candida albicans GDH18; assay type: cell-based; settings: 37° C., 90 minutes, 1 mM phosphate buffer
Description: As the Candida, cariogenic bacteria and periodontal disease bacteria, the Candida albicans GDH18 strain, Streptococcus sobrinus B-13 strain, Streptococcus mutans NCTC10449 strain, Streptococcus mutans Ingbritt strain, Porphyromonas gingivalis Hudoi001 strain and Aggregatibacter actinomycetemcomitans Hudoe001 strain were used. The test strains were provided from Faculty of Dentistry, Hiroshima University, Japan, and Hiroshima University Dental Hospital.
The Candida albicans GDH18 strain was precultured using SD medium (Difco) at 37° C. for 24 hours under aerobic conditions. The Streptococcus sobrinus B-13 strain, Streptococcus mutans NCTC10449 strain and Streptococcus mutans Ingbritt strain were precultured using TSB medium (Difco) supplemented with 5% yeast extract (Difco) at 37° C. for 24 hours under aerobic conditions. The Porphyromonas gingivalis Hudoi001 strain and Aggregatibacter actinomycetemcomitans Hudoe001 strain were precultured using BHI medium (Difco) supplemented with hemin (5 mg/L) and vitamin K3 (1 mg/L) at 37° C. for 96 hours under anaerobic conditions with Anaero Pack System (Mitsubishi Gas Chemical Company, Inc.).
After the culture, the cells of the Candida, cariogenic bacteria and periodontal disease bacteria were collected by centrifugation at 1000×g, and washed twice with 1 mM phosphate buffer (pH 6.8). The cells were then suspended such that the final concentration was 1×10^8 cfu/ml or 1×10^7 cells/m. For suspension of the Streptococcus strains, ultrasonic treatment was also carried out.
Evaluation of the antimicrobial activity was carried out by the method by Edgerton and others (1998) with some modifications. With 20 mL of 1 mM phosphate buffer containing 0 to 25 μM Kog1 or Kog2 synthesized in Example 1, 20 μl of the suspension of the Candida albicans GDH18 strain cultured and prepared by the method described in the above Preparation Example was mixed, and the resulting mixture was incubated at 37° C. for 90 minutes with shaking. As a control, 20 ml of 1 mM phosphate buffer alone was used. The reaction was stopped by addition of 360 ml of YNB medium (Difco), and the number of colonies formed (colony forming units; CFUs) was counted together with the number of colonies in the control, to determine the percentage of living bacterial cells. That is, the equation of: (CFUs of suspension containing Kog1 or Kog2/CFU ml^−1 of control suspension)×100 was used to calculate the percentage.

[2] = tested on: Porphyromonas gingivalis LPS (P.g-LPS) on RAW264.7 macrophage-like cells, TNF-α; assay: LPS inactivation: TNF-α secretion of RAW264.7 cells (ELISA); assay type: cell-based
Protocol: (§1) As a medium, RPMI 1640 medium supplemented with 10% FBS (Fetal Bovine Serum) (Biological industries, Haemek, Israel), 1% antibiotic and 1% L-glutamine was used. In each well of a 24-well plate, 400 μl of the medium was placed, and 100,000 cells/well of mouse-derived RAW264.7 macrophage-like cells were inoculated thereto.
(§2) The bacteriocin Kog1 or Kog2, which was the same as in Example 1, was incubated in an Eppendorf tube under each of the following 4 conditions together with Porphyromonas gingivalis LPS (manufactured by InvivoGen) (hereinafter referred to as P.g-LPS) and the same medium as described above, at 37° C. under a gas phase of 5% CO2 for 2 hours: (1) 100 ng/ml P.g-LPS positive control; (2) 100 ng/ml P.g-LPS+5 μM Kog1 or Kog2; (3) 100 ng/ml P.g-LPS+10 μM Kog1 or Kog2; (4) 100 ng/ml P.g-LPS+20 μM Kog1 or Kog2.
(§3) The above-described medium placed in each well of the 24-well plate was removed using a pipetteman, and the medium in the Eppendorf tube for each of the 4 conditions described above was placed in the plate, followed by culturing the cells in the well plate at 37° C. under a gas phase of 5% CO2 for 12 hours. Thereafter, the culture supernatant was collected, and the amount of a chemokine ccl2 or the amount of a cytokine TNF-α secreted into the medium was quantified by the ELISA method by measuring the absorbance at 450 nm using a microplate reader. Since both ccl2 and TNF-α are involved in formation of inflammation, analysis of the relationship between the endotoxin LPS and the bacteriocins Kog1 and Kog2 is possible.

MC3T3-E1 cells = assay: Differentiation into osteoblasts: Type-I collagen expression by real-time quantitative RT-PCR; assay type: cell-based, mouse
Protocol: MC3T3-E1 cells, which are mouse-derived osteoblast-like cells, were used. The MC3T3-E1 cells were cultured in α-modified Eagle's Medium (α-MEM) supplemented with 10% FBS (Biological industries, Haemek, Israel), L-glutamine, antibiotic mixture (Invitrogen), 50 μg/ml ascorbic acid (Sigma), and 0 nM, 250 nM, 500 nM or 1000 nM Kog2, at 37° C. under 5% CO2 on plastic or titanium. From the thus cultured MC3T3-E1 cells, total RNA was extracted using TRIzol reagent (Invitrogen), and cDNA was then prepared using ReverTra Ace reverse transcriptase (Toyobo Co., Ltd.). Subsequently, the prepared cDNA was used for analyzing expression of Type-I collagen, which is a differentiation marker for osteoblasts, and of β-actin, which is an endogenous control, by real-time quantitative RT-PCR. In the real-time quantitative RT-PCR, Type-I collagen was analyzed using the forward primer shown in SEQ ID NO: 8, the reverse primer shown in SEQ ID NO: 9 and the probe shown in SEQ ID NO: 10. β-actin was analyzed using the forward primer shown in SEQ ID NO: 11, the reverse primer shown in SEQ ID NO: 12, and the probe shown in SEQ ID NO: 13.

[3] = tested on: Streptococcus mutans NCTC10449 strain; assay: Antimicrobial activity against Streptococcus mutans NCTC10449; assay type: cell-based; settings: 0 to 100 μM, FIG. 4
[4] = tested on: Streptococcus mutans Ingbritt strain; assay: Antimicrobial activity against Streptococcus mutans Ingbritt; assay type: cell-based; settings: 0 to 100 μM, FIG. 5
[5] = tested on: Porphyromonas gingivalis LPS (P.g-LPS) on RAW264.7 macrophage-like cells, ccl2; assay: LPS inactivation: ccl2 secretion of RAW264.7 cells (ELISA); assay type: cell-based, mouse
Protocol: as §1, §2, §3

[6] = 100 ng/ml P.g-LPS + Kog2 above a certain level, as amount added increases
[7] = 100 ng/ml P.g-LPS + small amount of Kog2 (5 μM)

Kog2: peptide having the amino acid sequence shown in SEQ ID NO: 2, bacteriocin of Lactobacillus rhamnosus, synthesized by the tea-bag method (MTKVRSSRLRPLTLRLLSAPARAQFLTIACRAILRYDLINS; listed as Lactobacillus rhamnosus)
peptide concentration at which 100% of the strain was killed [1]: 0.39 µM
amount of the cytokine TNF-α secreted [2, 6]: decreases
amount of the cytokine TNF-α secreted [2, 7]: increases
value of Type I collagen/β-actin versus no Kog2 added (MC3T3-E1 cells; Kog2 at 250 nM vs ctrl): 3 times
concentration that best promotes differentiation into osteoblasts (MC3T3-E1 cells; tested 0, 250, 500, 1000 nM): about 250 nM
antimicrobial activity compared to the other antimicrobial peptides (hBD2, lysozyme) [3]: capable of killing a larger amount of Streptococcus mutans even at relatively low peptide concentration
antimicrobial activity compared to the other antimicrobial peptides (hBD2, lysozyme) [4]: capable of killing a larger amount of Streptococcus mutans even at relatively low peptide concentration
amount of the chemokine ccl2 secreted [5, 6]: decreases
amount of the chemokine ccl2 secreted [5, 7]: increases
